Experimental data published in patent publication US9820497B2, “Astaxanthin-containing pet foods” (FUJI CHEMICAL INDUSTRY CO., LTD, priority 2003, dated 2017).

Experiments:
[1] = Feces odor test (odor tester KALMOR-Σ) before and after administration; format: in vivo, dog; conditions: four dogs, 4 weeks of administration; conclusion from Table 3
Method: (§1) Four dogs were fed only with the same commercially available dog food for 3 months or more, and thereafter, two AstaReal tablets (manufactured by Natureal Corporation, containing 0.67 mg of free astaxanthin per tablet in terms of free astaxanthin) per day were given to the dogs at dinner for 4 weeks. […] The feces discharged before and after administration of astaxanthin were collected. Samples were prepared each by taking a piece from the top portion, middle portion and end portion in the same amount and mixing these pieces. The samples were placed in a shielded vessel of 100 ml in volume and kept in dark and used in tests within 24 hours.
Odor of the samples was measured by an odor tester (KALMOR-Σ, manufactured by Kalmor Co.) in a room maintained at 22° C. To explain more specifically, the odor of an airtight vinyl bag of 280 mm×200 mm containing no sample was measured as an initial value by inserting a test probe. Then, 100 mg of sample was weighed, placed in the vinyl bag and stand still for 15 minutes. The odor of the vinyl bag having the sample placed therein was measured (measured value). The value of the odor was obtained by subtracting the initial value from the measured value.

dogs = assay: Health conditions of the dogs before and during administration; format: in vivo, dog; conditions: four dogs, before and during the 4 weeks of administration
Method: as §1

[2] = as high as β-carotene; cited from earlier work
[3] = known; cited from earlier work

CC1=C(/C=C/C(C)=C/C=C/C(C)=C/C=C/C=C(C)/C=C/C=C(C)/C=C/C2=C(C)C(=O)C(O)CC2(C)C)C(C)(C)CC(O)C1=O (stereo not drawn) [astaxanthin, 3,3′-dihydroxy-β,β-carotene-4,4′-dione]
odor of the excrement [1]: clearly is decreased
health conditions (diarrhea, fatigue) (dogs): healthy conditions without exhibiting diarrhea and fatigue
antioxidative action relative to β-carotene [2]: about 40 times
mutagenicity [3]: no mutagenicity is observed
